Columns and labels:
human GPR84 receptor = target: T1, human GPR84 receptor (Homo sapiens, UniProt Q9NQS5); test: GPR84 antagonistic effect determination (cAMP assay, forskolin and 6-OAU stimulation); assay type: cell-based; settings: CHO stably transfected cell line highly expressing human GPR84; 2.5 μM Forskolin & 200 nM 6-OAU; cAMP readout; read-out: Antagonistic effect against GPR84, IC50
T1 construct: expressed in transfected cells; host or cells: CHO
Experimental: The antagonistic effect of the compound against GPR84 was determined in a CHO stably transfected cell line highly expressing the human GPR84 receptor. The stably transfected cells were cultured until 80% confluence; the cells were collected by trypsinization, counted, and then inoculated into a 384-well plate at 5 L/well. 10× compound working solution was prepared with 1× Stimulation Buffer. […] After the reaction was completed, the content of CAMP in the cells was quantified according to the method in the instructions of the cAMP assay kit (Perkin Elmer, Cat #TRF0263). The antagonistic effect (IC50 value) of the test compounds was calculated.

[1] = Pharmacokinetic experiment in mice; assay type: in vivo; settings: mouse; male ICR mice, oral gavage 3 mg/kg, plasma
Experimental: For the pharmacokinetic experiment in mice, male ICR mice, 20 to 25 g, were used and fasted overnight. Three mice were taken and orally administered by gavage (3 mg/kg): blood was collected before the administration, and at 15 min, 30 min, 1 hour, 2 hours, 4 hours, 8 hours, and 24 hours after the administration. The blood samples were centrifuged at 6800 g for 6 min at 2 to 8° C., and plasma was collected and stored at −80° C. 20 μL of plasma at each time point was taken, and added with 200 μL of methanol containing 100 ng/mL internal standard. The mixture was vortexed, mixed evenly, and then centrifuged at 18000 g for 7 min at 2 to 8° ° C. 200 μL of the mixture was transferred to a 96-well injection plate for LC-MS/MS quantitative analysis. The main pharmacokinetic parameters were analyzed using WinNonlin 7.0 software with non-compartmental model.

T1 sequence (Q9NQS5 whole entry): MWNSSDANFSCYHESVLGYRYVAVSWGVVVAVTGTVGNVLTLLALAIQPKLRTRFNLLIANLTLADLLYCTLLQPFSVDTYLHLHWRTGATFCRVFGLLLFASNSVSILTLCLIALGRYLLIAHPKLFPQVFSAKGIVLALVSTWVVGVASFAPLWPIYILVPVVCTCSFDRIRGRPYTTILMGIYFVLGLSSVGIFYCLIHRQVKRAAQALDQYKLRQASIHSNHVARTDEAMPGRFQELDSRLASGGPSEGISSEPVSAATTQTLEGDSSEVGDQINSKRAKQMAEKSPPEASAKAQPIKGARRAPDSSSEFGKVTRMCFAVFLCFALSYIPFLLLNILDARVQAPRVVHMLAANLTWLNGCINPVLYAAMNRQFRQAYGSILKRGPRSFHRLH

SMILES: O=c1nc(OCC23CC(CO2)C3)cc2n1CCc1cc(C#CC3CC3)ccc1-2 [Compound I-1, 2-((2-oxabicyclo[2.1.1]hexan-1-yl)methoxy)-9-(cyclopropylethynyl)-6,7-dihydro-4H-pyrimido[6,1-α]isoquinolin-4-one]
- IC50 (human GPR84 receptor): 27.2 nM
- AUC(0-t) [1]: 54400 ng·h/mL
- Cmax [1]: 14800 ng/mL
- Tmax [1]: 30 min
- half-life [1]: 61.8 min

SMILES: O=c1nc(OC[C@@H]2COCCO2)cc2n1CCc1cc(C#CC3CC3)ccc1-2 [Control compound, reference compound]
- AUC(0-t) [1]: 7280 ng·h/mL
- Cmax [1]: 4120 ng/mL
- Tmax [1]: 30 min
- half-life [1]: 229 min

From patent publication US20240287064A1, “TRICYCLIC COMPOUND USED AS GPR84 ANTAGONIST” (Wuhan Humanwell Innovative Drug Research and Development …, priority 2021, published 2024)
